Reference: patent US20260317706A1, “COMPOSITION FOR INDUCING STEM CELLS TO DIFFERENTIATE INTO ASTROCYTES, CONTAINING CPI-455” (CHUNG ANG UNIVERSITY INDUSTRY ACADEMIC COOPERATION …, priority 2023, published 2026)

Legend:
Assay type in all cases: cell-based, Sprague-Dawley rat
[1] = test system: neural stem cells (NSCs); test: Immunocytochemistry (ICC) of differentiating neural stem cells
Description: (§1) Neural stem cells (NSCs) were cultured and harvested as previously reported (Faseb J 2018, 32 (2), 1108-1119). Specifically, the cells were harvested by dissecting the cerebral cortex from embryos of 14-day pregnant Sprague-Dawley rats (Orient Bio, Seongnam, South Korea). The cells were incubated for 6 days at 37° C. in 5% CO2 in Dulbecco's modified Eagle's medium (DMEM/F12) (Cat no. 12500-062, Gibco, Grand Island, NY, U.S.A.) containing Ham's nutrient mixture F-12 supplemented with 1% antibiotic-antimycotic (Cat no. 15240-062, Gibco), 2% B-27 supplement (Cat no. 17504-044, Gibco), 20 ng/ml EGF (Cat no. GF144, Chemicon, Burlington, MA, U.S.A.), and 20 ng/ml FGF2 (Cat no. GF003AF, Chemicon), so as to form neurospheres. The neurospheres were then dissociated into single cells using Accutase (Cat No. SCR005, Sigma-Aldrich, St. Louis, MO, U.S.A.). The cells were then attached to culture plates for one day in medium enriched with EGF and FGF2. Next, the NSCs were treated with DMEM/F12 medium containing 1% antibiotic-antimycotic, 2% B-27 supplement, and either DMSO (Cat no. 472301, Sigma-Aldrich) or various concentrations of CPI-455 (Cat no. HY-100421, Medchemexpress, Princeton, NJ, U.S.A.) dissolved in DMSO. The medium was replaced every 2 days. Cells for western blot and immunostaining were cultured for 4 days after treatment with CPI-455. Cells for RT-qPCR and ChIP-qPCR were cultured for 3 days after treatment with CPI-455.
Immunocytochemistry was performed as previously reported (Faseb J 2018, 32 (2), 1108-1119). Specifically, the cells were fixed in 4% paraformaldehyde solution (Cat no. P231, Biosesang, Seongnam, South Korea) for 30 minutes. The cells were blocked with 5% goat serum (Cat no. S26, Millipore) diluted in 0.2% Triton X-100 (Cat no. 0694-1L, VWR International, Radnor, PA, U.S.A.).
The cells were stained for 1 hour with the following primary antibodies: TUBB3 (1:1000; Cat no. T5076, Sigma-Aldrich) and GFAP (1:500; Cat no. Z0334, Dako, Santa Clara, CA, U.S.A.). Next, the following secondary antibodies were applied for 30 minutes: Alexa488 goat anti-mouse IgG (1:1000; Cat no. A21131, Invitrogen, Waltham, MA, U.S.A.) and Cy3 goat anti-rabbit IgG (1:1000; Cat no. 111-165-144, Jackson, West Grove, PA, U.S.A.).
The nuclei were stained by treating the cells with 0.01% DAPI (4′,6-diamidino-2-phenylindole) (Cat No. D9542, Sigma-Aldrich) in PBS solution for 5 minutes. Fluorescent images were captured using a Leica DM IL inverse fluorescent microscope and LAS X software (Leica, Wetzlar, Germany).
NSCs proliferate in the presence of an epidermal growth factor (EGF) and […] growth factor-2 (FGF2), and in the absence of growth factors in a medium, NSCs differentiate into neurons and astrocytes. […]

[2] = test system: STAT3; test: Western blot of STAT3 expression and phosphorylation in neural stem cells; conditions: 50 μM, 4 days, FIG. 3A
Description: as §1, with “Next, the NSCs were treated with DMEM/F12 medium containing 1% antibiotic-antimycotic, 2% B-27 supplement, and either DMSO (Cat no. 472301, Sigma-Aldrich) or various concentrations of CPI-455 (Cat no. HY-100421, Medchemexpress, Princeton, NJ, U.S.A.) dissolved in DMSO. The medium was replaced every 2 days. Cells for western blot and immunostaining were cultured for 4 days after treatment with CPI-455. Cells for RT-qPCR and ChIP-qPCR were cultured for 3 days after treatment with CPI-455.” left out
Chemiluminescence was detected on CP-BU new film (Agfa, Mortsel, Belgium) using western blotting luminol reagent (Cat no. sc-2048, Santa Cruz Biotechnology). Band intensity was quantified using ImageJ version 2.3.0. GAPDH (Glyceraldehyde-3-phosphate dehydrogenase) was measured as a housekeeping protein.

[3] = test system: OLIG2; test: Western blot of OLIG2 in differentiating neural stem cells; conditions: NSCs without EGF and FGF2, 4 days, vs 0.1% DMSO, FIG. 1A
Description: as §1, with “Next, the NSCs were treated with DMEM/F12 medium containing 1% antibiotic-antimycotic, 2% B-27 supplement, and either DMSO (Cat no. 472301, Sigma-Aldrich) or various concentrations of CPI-455 (Cat no. HY-100421, Medchemexpress, Princeton, NJ, U.S.A.) dissolved in DMSO. The medium was replaced every 2 days. Cells for western blot and immunostaining were cultured for 4 days after treatment with CPI-455. Cells for RT-qPCR and ChIP-qPCR were cultured for 3 days after treatment with CPI-455.” left out
(§2) Chemiluminescence was detected on CP-BU new film (Agfa, Mortsel, Belgium) using western blotting luminol reagent (Cat no. sc-2048, Santa Cruz Biotechnology). Band intensity was quantified using ImageJ version 2.3.0. GAPDH (Glyceraldehyde-3-phosphate dehydrogenase) was measured as a housekeeping protein. […]

[4] = test system: GFAP; test: Western blot of TUBB3, GFAP and OLIG2 in differentiating neural stem cells; conditions: NSCs without EGF and FGF2, 4 days, vs 0.1% DMSO, FIG. 1A
Description: as §1, with “Next, the NSCs were treated with DMEM/F12 medium containing 1% antibiotic-antimycotic, 2% B-27 supplement, and either DMSO (Cat no. 472301, Sigma-Aldrich) or various concentrations of CPI-455 (Cat no. HY-100421, Medchemexpress, Princeton, NJ, U.S.A.) dissolved in DMSO. The medium was replaced every 2 days. Cells for western blot and immunostaining were cultured for 4 days after treatment with CPI-455. Cells for RT-qPCR and ChIP-qPCR were cultured for 3 days after treatment with CPI-455.” left out
as §2

[5] = test system: gfap mRNA; test: RT-qPCR of gfap mRNA in differentiating neural stem cells; conditions: 50 μM, 3 days without EGF and FGF2, vs 0.1% DMSO, FIG. 1B
Description: as §1, with “Next, the NSCs were treated with DMEM/F12 medium containing 1% antibiotic-antimycotic, 2% B-27 supplement, and either DMSO (Cat no. 472301, Sigma-Aldrich) or various concentrations of CPI-455 (Cat no. HY-100421, Medchemexpress, Princeton, NJ, U.S.A.) dissolved in DMSO. The medium was replaced every 2 days. Cells for western blot and immunostaining were cultured for 4 days after treatment with CPI-455. Cells for RT-qPCR and ChIP-qPCR were cultured for 3 days after treatment with CPI-455.” left out
(§3) RNA was extracted using TRIzol® reagent (Cat no. 15596018, Thermo Fisher, Waltham, MA, U.S.A.) and dissolved in diethylpyrocarbonate-treated water (Cat no. C-9030, Bioneer, Daejeon, South Korea). Complementary DNA (cDNA) was synthesized from 1 μg of RNA per sample using a QuantiTect reverse transcriptase kit (Cat no. 205311, Qiagen, Hilden, Germany). […]

[6] = test system: TUBB3; test: Western blot of TUBB3 in differentiating neural stem cells; conditions: NSCs without EGF and FGF2, 4 days, vs 0.1% DMSO, FIG. 1A
Description: as §1, with “Next, the NSCs were treated with DMEM/F12 medium containing 1% antibiotic-antimycotic, 2% B-27 supplement, and either DMSO (Cat no. 472301, Sigma-Aldrich) or various concentrations of CPI-455 (Cat no. HY-100421, Medchemexpress, Princeton, NJ, U.S.A.) dissolved in DMSO. The medium was replaced every 2 days. Cells for western blot and immunostaining were cultured for 4 days after treatment with CPI-455. Cells for RT-qPCR and ChIP-qPCR were cultured for 3 days after treatment with CPI-455.” left out
as §2

[7] = test system: bmp2 mRNA; test: RT-qPCR of il-6, lif, cntf and bmp2 mRNA in neural stem cells; conditions: 3 days, FIG. 3B
Description: as §1, with “Next, the NSCs were treated with DMEM/F12 medium containing 1% antibiotic-antimycotic, 2% B-27 supplement, and either DMSO (Cat no. 472301, Sigma-Aldrich) or various concentrations of CPI-455 (Cat no. HY-100421, Medchemexpress, Princeton, NJ, U.S.A.) dissolved in DMSO. The medium was replaced every 2 days. Cells for western blot and immunostaining were cultured for 4 days after treatment with CPI-455. Cells for RT-qPCR and ChIP-qPCR were cultured for 3 days after treatment with CPI-455.” left out
as §3

[8] = test system: lif mRNA; test: RT-qPCR of lif mRNA in neural stem cells; conditions: 3 days, CPI-455-induced astrocytogenesis
Description: as §1, with “Next, the NSCs were treated with DMEM/F12 medium containing 1% antibiotic-antimycotic, 2% B-27 supplement, and either DMSO (Cat no. 472301, Sigma-Aldrich) or various concentrations of CPI-455 (Cat no. HY-100421, Medchemexpress, Princeton, NJ, U.S.A.) dissolved in DMSO. The medium was replaced every 2 days. Cells for western blot and immunostaining were cultured for 4 days after treatment with CPI-455. Cells for RT-qPCR and ChIP-qPCR were cultured for 3 days after treatment with CPI-455.” left out
as §3

[9] = 50 μM, 4 days without EGF and FGF2, vs 0.1% DMSO, FIGS. 2A and 2B

SMILES: CC(C)c1c(-c2ccccc2)[nH]c2c(C#N)cnn2c1=O [CPI-455, 4,7-dihydro-6-(1-methylethyl)-7-oxo-5-phenyl-pyrazolo[1,5-a]pyrimidine-3-carbonitrile]
- number of GFAP-positive cells [1, 9]: significantly increased
- percentage of TUBB3-positive cells [1, 9]: did not show any significant difference
- number of DAPI-positive cells ([1]; 4 days without EGF and FGF2, vs 0.1% DMSO): No significant difference
- cytotoxicity during NSC differentiation ([1]; 4 days, inferred from DAPI-positive cell number): not inducing cytotoxicity
- phosphorylated STAT3 (pSTAT3) with respect to total STAT3 [2]: significantly increased
- OLIG2 protein expression [3]: no significant change
- GFAP protein expression compared to the control [4]: significantly increased
- gfap mRNA expression compared to the control [5]: significantly increased
- TUBB3 protein expression [6]: no significant change
- bmp2 mRNA expression ([7]; 50 μM): significantly increased
- bmp2 mRNA among the investigated cytokines (il-6, lif, cntf, bmp2) ([7]; comparison with il-6, lif, cntf): only cytokine mRNA that showed a significant increase
- lif expression [8]: without an increase
